The results in this text go back to US4223016A, “Peptides” (Beecham Group Limited, priority 1977, dated 1980).

Where a SMILES comes first, the peptide text is derived from it. Where no end group is shown, it is not given here.

For one assay, the system named is Rat Skin. The experiment in a line: Skin test, intradermal titration in rat skin in vivo. The note with it: read 20 minutes after intradermal challenge. The protocol:
(§1) Skin tests were carried out in the shaved backs of animals (rats and baboons) immediately after intravenous injection of pontamine sky blue (5%) in aqueous sodium chloride solution (0.9%) at a dose of 0.1 ml per kilogram of body weight in the case of rats and 5 ml per animal in the case of baboons.
(§2) Peptide in aqueous sodium chloride solution (0.9%), or saline control, were injected intradernally in 0.05 ml or 0.10 ml volumes. Skin reactions were read 20 minutes after intradernal challenge.

The test system of assay [1] is Rat Peritoneal Mast Cells. As to the kind of experiment: Histamine release from rat peritoneal mast cells (Rat Mast Cell in vitro test). In kind it is cell-based. Conditions: for EC50: average of a number of experiments, read-out: ACTIVITY: average concentration of peptide to give approximately 50% release of available histamine from rat mast cells. The source says:
(§3) (a) (1) Histamine, (2) Cr^51 and (3) Lactic Dehydrogenase Release from Rat Peritoneal Mast Cells (Rat Mast Cell in vitro test)
(§4) Mast cells, derived from the peritoneal washings of three male, outbred Wistar rates (250-300 g), were purified by the procedure according to Cooper and Stanworth (Preparative biochem. 4(2), 105, 1975).
(§5) The purified cells were washed twice in Dulbecco's incomplete (i.e. free from mineral salts) buffer and then resuspended in Dulbecco's medium to the required volume. In a typical experiment, sufficient cells were available for 30 duplicate challenges, i.e. 60 samples and in this case the resuspension volume employed was 6.1 mls. 0.1 ml of cell suspension were taken for estimating the cell count.
One third of the cell suspension was employed. To 0.9 ml duplicate aliquots of challenge solution, prepared in complete Dulbecco's medium and prewarmed to 37° C., was added 0.1 ml of cell suspension. The solutions were then shaken gently, and allowed to incubate for 5 minutes at 37° C. The reaction tubes were then quickly removed from the incubator and placed in an ice bath. Supernatants were then seqparated from the cell population following centrifugation for 3 minutes at 1000 r.p.m. The cell residues were then treated with 2 mls of 0.4 N perchloric acid and allowed to stand for approximately 30 minutes at ambient temperature. The precipitated protein was removed by centrifugation and the supernatant solutions set aside for histamine analysis. The original supernatant solutions were treated with 1.0 ml of 0.8 N perchlorate and then treated in a similar manner to the cell residues. Histamine was measured by the method according to Evans, Lewis and Thompson (Life Sciences, 12, 327, 1973) using a Technicon Auto-analyser. Histamine release was calculated as a percentage of total histamine available in each challenge solution.

The subject of the next assay is Baboon Skin. The experiment in a line: Skin test, intradermal titration in baboon skin in vivo. Conditions: for ACTIVITY: average concentration of peptide to give an end point in intradernal titrations in baboon skin: read 20 minutes after intradermal challenge. The protocol:
as §1, §2

Assay [2] concerns peritoneal mast cells of ovalbumen-immunised Brown Norway rats. The experiment in a line: Cross desensitisation between antigen and peptide in the in vitro rat mast cell system. It is filed as cell-based. How it is done:
(c) Cross Desensitisation in the vitro rat mast cell system between antigen and peptide
Brown Norway rats were immunised intraperitoneally with 100 μg of ovalbumen (XOA) in lmg `alum`. On day 27, peritoneal mast cells were removed, bulked and washed. Aliquots of cells were desensitised by the addition of 4×5 minute incubations with various XOA or peptide concentrations or buffer alone. The cells were then submitted to an optimal histamine releasing challenge of peptide, XOA, or challenged with buffer alone.

The test system of assay [3] is Rat Peritoneal Mast Cells. The experiment in a line: Cr^51 and lactic dehydrogenase (LDH) release from rat peritoneal mast cells. It is filed as cell-based. The note with it: Rat Mast Cells in vitro.
Description: as §3, §4, §5
One third of the cell suspension was employed. […] Activity present in the whole recovered supernatants was measured using a Tracer Laboratory Spectromatic γ counter. The percentage of Cr^51 released was assessed in relation to the values obtained for the positive and negative control solutions.
One third of the cell suspension was employed. […] The solutions were incubated at ambient temperature for 20 minutes and the fluorescence emission was then measured. […] The LDH activity was assessed in terms of the increase of fluorescence over control due to NADH formation following lactate addition. […]

The mark [4] stands for this setting: cells desensitised with the substance in 4 rising steps (BRL 21547 5 × 10^-8 to 10^-6 M; XOA 0.005 to 0.1 μg/ml), challenge Buffer.
[5] abbreviates: cells desensitised with the substance in 4 rising steps, challenge BRL 21547 (10^-5 M).
Where [6] appears, read: cells desensitised with the substance in 4 rising steps, challenge XOA lμg/ml.
[7] abbreviates: desensitisation steps 1-4 Buffer, challenge with the substance (BRL 21547 10^-5 M; XOA lμg/ml).

As to `COC(=O)[C@H](Cc1ccccc1)NC(=O)[C@H](Cc1ccccc1)NC(=O)CNC(=O)[C@H](CO)NC(=O)CNC(=O)[C@H](CCCCN)NC(=O)[C@@H](NC(=O)[C@H](CCCCN)NC(=O)[C@H](CCCNC(=N)N)NC(=O)[C@@H]1CCCN1)[C@@H](C)O` [Example No. 5, ProArgLysThrLysGlySerGlyPhePheOMe] (H-PRKTKGSGFF-OMe), the “ACTIVITY: average concentration of peptide to give an end point in intradernal titrations in rat skin” value (from here on “ACTIVITY: average concentration … in rat skin”) in the assay on Rat Skin amounted to 100 µM. Besides, the EC50 in assay [1] was 9.2 µM. Moreover, in the assay on Baboon Skin, the “ACTIVITY: average concentration of peptide to give an end point in intradernal titrations in baboon skin” value (shortened to “ACTIVITY: average concentration … in baboon skin”) is 100 nM.

“XOA: ovalbumen (XOA), the antigen used to immunise Brown Norway rats and to challenge or desensitise their mast cells [reference compound]”: the “Total average % histamine release” value was found to be 6% in assay [2] (setting [4]), 6% in assay [2] (setting [5]), 6% in assay [2] (setting [6]) and 56% in assay [2] (setting [7]).

As for “KTKGSGFF-OH [Example No. 6, LysThrLysGlySerGlyPhePheOH]”, the “ACTIVITY: average concentration … in rat skin” value in the assay with Rat Skin was determined as 100 µM. For the same compound, in assay [1], the EC50 stood at 10 µM. The “ACTIVITY: average concentration … in baboon skin” value with Baboon Skin worked out at 10000 nM.

For the compound “KTKGSGFFVF-OH [Example No. 4, LysThrLysGlySerGlyPhePheValPheOH]”, the “ACTIVITY: average concentration … in rat skin” value in the assay with Rat Skin stood at 100 µM. Also, the EC50 in assay [1] was 33 µM. The “ACTIVITY: average concentration … in baboon skin” value in the assay on Baboon Skin was determined as 10000 nM.

Take `COC(=O)[C@H](Cc1ccccc1)NC(=O)[C@H](Cc1ccccc1)NC(=O)CNC(=O)[C@H](CO)NC(=O)CNC(=O)[C@H](CCCCN)NC(=O)[C@@H](NC(=O)[C@@H](N)CCCCN)[C@@H](C)O` [Example No. 1, LysThrLysGlySerGlyPhePheOMe] (H-KTKGSGFF-OMe): the “ACTIVITY: average concentration … in rat skin” value in the assay on Rat Skin came to 100 µM. Further, the “LDH/^51 Cr Release” value in assay [3] (at 10^-6 M) is recorded as “None”. Besides, the EC50 in assay [1] was 7.5 µM. For the same compound, the “Inhibition of Activity” value in assay [1] (inhibition of the peptide's histamine release by Intal (10^-4)) is 50%. Besides, the “ACTIVITY: average concentration … in baboon skin” value with Baboon Skin amounted to 500 nM.

For `COC(=O)[C@H](Cc1ccccc1)NC(=O)[C@H](Cc1ccccc1)NC(=O)CNC(=O)[C@H](CO)NC(=O)CNC(=O)[C@H](CCCCN)NC(=O)[C@@H](NC(=O)[C@H](CCCCN)NC(=O)[C@@H](N)CCCNC(=N)N)[C@@H](C)O` [Example No. 2, ArgLysThrLysGlySerGlyPhePheOMe] (H-RKTKGSGFF-OMe), the “ACTIVITY: average concentration … in rat skin” value with Rat Skin was found to be 100 µM. Further, the EC50 in assay [1] was determined as 0.15 µM. Besides, in the assay with Baboon Skin, the “ACTIVITY: average concentration … in baboon skin” value stood at 100 nM.

As to `COC(=O)[C@H](Cc1ccccc1)NC(=O)[C@@H](NC(=O)[C@H](Cc1ccccc1)NC(=O)[C@H](Cc1ccccc1)NC(=O)CNC(=O)[C@H](CO)NC(=O)CNC(=O)[C@H](CCCCN)NC(=O)[C@@H](NC(=O)[C@@H](N)CCCCN)[C@@H](C)O)C(C)C` [Example No. 3, LysThrLysGlySerGlyPhePheValPheOMe] (H-KTKGSGFFVF-OMe), in the assay with Rat Skin, the “ACTIVITY: average concentration … in rat skin” value is 10 µM. For the same compound, in assay [3] (at 10^-4 M peptide), the “LDH/^51 Cr Release” value is “None”. For the same compound, the EC50 in assay [1] is 1 µM. In addition, the “Inhibition of Activity” value with Baboon Skin (by Antihistamine or Intal-like drug) is “Partial”. Moreover, the “ACTIVITY: average concentration … in baboon skin” value in the assay on Baboon Skin was 10 nM. For the same compound, the “cross-desensitisation in rat mast cells in vitro between peptide and antigen (in words)” value in assay [2] is given as “cross-desensitisation”. The “Total average % histamine release” value in assay [2] (setting [4]) turned out to be 6%; in assay [2] (setting [5]), 6%; in assay [2] (setting [6]), 17%; in assay [2] (setting [7]), 47%.
